We go through 35 compounds from PubChem BioAssay AID743254 (The Scripps Research Institute Molecular Screening Center, 2014).

Calls of active or inactive are those of the source.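 How the source made its calls: active means half-inhibition concentration IC50 of 10 µM or lower; inactive means IC50 above 10 µM.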

The term IC50 denotes the point on the concentration scale where inhibition reaches its midpoint.

The assay addresses Disintegrin and metalloproteinase domain-containing protein 10 (Homo sapiens) (UniProt O14672). The assay is described as follows: potency of ADAM10 substrate cleavage blockers – biochemical, QFRET, dose response (AID 743254). To be noted: ADAM10 QFRET peptide cleavage, EDANS fluorescence, 3 h.

Chain of Disintegrin and metalloproteinase domain-containing protein 10 (Homo sapiens) (O14672 214-748 limits assumed): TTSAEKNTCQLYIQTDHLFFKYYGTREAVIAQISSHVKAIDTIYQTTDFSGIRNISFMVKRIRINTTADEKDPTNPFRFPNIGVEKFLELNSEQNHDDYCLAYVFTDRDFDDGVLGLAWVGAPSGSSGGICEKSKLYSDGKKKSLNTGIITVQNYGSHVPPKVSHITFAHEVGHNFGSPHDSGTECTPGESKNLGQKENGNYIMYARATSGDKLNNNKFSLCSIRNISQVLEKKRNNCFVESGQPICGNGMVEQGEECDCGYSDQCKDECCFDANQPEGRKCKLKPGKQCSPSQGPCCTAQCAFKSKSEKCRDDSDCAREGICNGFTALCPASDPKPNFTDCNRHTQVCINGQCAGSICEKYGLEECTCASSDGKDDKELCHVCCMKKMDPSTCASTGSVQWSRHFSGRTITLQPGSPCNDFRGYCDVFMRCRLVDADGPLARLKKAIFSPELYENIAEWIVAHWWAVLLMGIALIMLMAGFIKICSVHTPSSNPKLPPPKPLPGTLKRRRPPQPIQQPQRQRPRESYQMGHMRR

Turning to `O=[N+]([O-])c1cccnc1N1CCC(c2cc(-c3ccc(Cl)cc3)n[nH]2)CC1`, the IC50 was 8.8 µM.

Regarding `O=[N+]([O-])c1ccc(O)c(/C=N/Nc2ccccn2)c1`, the IC50 result is “inactive”.

As to `O=C(NNC(=O)c1cc(-c2ccc(Cl)cc2)nc2ccccc12)c1csc(N2CCOCC2)n1`, the IC50 was > 69.5 µM (inactive).

Turning to `Fc1c(F)c(C(F)(F)F)c(F)c(F)c1N/N=C\c1cccs1`, the IC50 is > 69.5 µM (inactive).

As to `C=C(C)COc1ccc(-c2[nH]ncc2Oc2ccc(OC)cc2)c(O)c1`, the IC50 was 5.44 µM.

Consider `O=C1OCCN1C(=O)[C@H]1[C@H](c2ccc([N+](=O)[O-])cc2)C(c2ccc(F)cc2)=NN1c1ccc(Br)cc1`, for which the IC50 result is “inactive”.

Consider `COc1ccc(-c2ccc(-c3noc(-c4cccc(OC)c4)n3)c(OC)n2)cc1`, for which the IC50 is > 69.5 µM (inactive).

Take `Cc1cccc(C)c1OCC(O)Cn1c2ccccc2c2ccccc21` (stereo not given): the IC50 was > 69.5 µM (inactive).

Consider `O=C(Nc1cccc(S(=O)(=O)Nc2ccc(Cl)cc2)c1)c1cc2c(s1)CCCC2`, for which the IC50 was > 69.5 µM (inactive).

With `O=C1OCCN1C(=O)[C@H]1[C@H](c2ccc([N+](=O)[O-])cc2)C(c2cccc(Cl)c2)=NN1c1ccc(Br)cc1`, the IC50 entry was “inactive”.

Take `O=[N+]([O-])c1ccc(S(=O)(=O)Nc2ccc(-c3csc(-c4ccccc4)n3)cc2)cc1`: the IC50 result was “inactive”.

`O=[N+]([O-])c1ccc(-c2nc(-c3cccs3)c(-c3cccs3)[nH]2)cc1`: the IC50 is > 69.5 µM (inactive).

`CC(=O)c1ccc(N2CCC(c3cc(-c4ccc(Cl)cc4Cl)n[nH]3)CC2)c([N+](=O)[O-])c1`: the IC50 result is “inactive”.

For the compound `CCCN(CC(=O)Nc1cc(Cl)cc(Cl)c1)CC(=O)Nc1ccc(F)c(F)c1F`, the IC50 result was “inactive”.

Regarding `C(=C\c1ccccc1)/C=N/Nc1nc2ccccc2s1`, the IC50 is > 69.5 µM (inactive).

As to `COC(=O)c1ccc(N2CCC(c3cc(-c4ccc(OC)cc4)n[nH]3)CC2)c([N+](=O)[O-])c1`, the IC50 was > 69.5 µM (inactive).

Take `Oc1ccc(Cl)cc1-c1cc(-c2cccc(Br)c2)n[nH]1`: the IC50 is > 69.5 µM (inactive).

Regarding `C=C(C)COc1ccc(-c2[nH]ncc2Oc2cccc(OC)c2)c(O)c1`, the IC50 was 7.45 µM.

With `O=[N+]([O-])c1cc(S(=O)(=O)Nc2ccccc2)ccc1N1CCN(c2ccccc2)CC1`, the IC50 entry is “inactive”.

For the compound `O=C1CC(N(CCc2ccccc2)C(=S)Nc2cc(Cl)ccc2Cl)C(=O)N1c1c(Cl)cccc1Cl` (stereo not given), the IC50 was > 69.5 µM (inactive).

As for `Cc1cc(C)c(CSc2ncc(-c3ccc([N+](=O)[O-])cc3)[nH]2)c(C)c1`, the IC50 result was “inactive”.

For `COc1ccc(C(Nc2cc(C)ccn2)c2ccc3ccc(C)nc3c2O)cc1` (stereo not given), the IC50 is 7.23 µM.

For `COc1ccc(CCN2C(=O)c3[nH]nc(-c4ccccc4O)c3C2c2cccc(Cl)c2)cc1` (stereo not given), the IC50 entry is “inactive”.

On to `COc1cc(/C=N/O)cc(Br)c1OCc1ccc(Cl)cc1`, for which the IC50 is > 69.5 µM (inactive).

Consider `COc1ccc(S(=O)(=O)Nc2cc3c4c(oc3c3ccccc23)CC(C)(C)CC4=O)cc1`, for which the IC50 is > 69.5 µM (inactive).

As for `O=C(Nc1ccc(OCC(F)(F)C(F)F)c(C(F)(F)F)c1)c1ccc(Cl)cc1`, the IC50 is 7.43 µM.

For `O=C(NNC(=O)c1cc(-c2ccccc2)nc2ccccc12)Nc1cccc(Cl)c1`, the IC50 was > 69.5 µM (inactive).

For `CCOC(=O)c1c(CSc2ccc(C)cc2)oc2ccc(O)cc12`, the IC50 result is “inactive”.

For the compound `N#Cc1c(Cl)nc(N/N=C/c2ccccc2)c(Cl)c1Cl`, the IC50 was > 69.5 µM (inactive).

Regarding `COc1ccc(-c2cn[nH]c2-c2ccc(OCc3ccccc3)cc2O)cc1`, the IC50 was 9.61 µM.

Turning to `O=C(OCc1csc(Nc2ccccc2)n1)c1ccc(Cl)cc1`, the IC50 result was “inactive”.

Turning to `O=C(Nc1ccc(N2CCCC2)c(S(=O)(=O)Nc2cccc(C(F)(F)F)c2)c1)c1cccs1`, the IC50 is > 69.5 µM (inactive).

Turning to `CCc1ccc(NC(=O)c2ccc(F)c(S(=O)(=O)NCC3COc4ccccc4O3)c2)cc1` (stereo not given), the IC50 entry was “inactive”.

As to `Cc1ccc(NS(=O)(=O)c2ccc(Cl)c(NC(=S)NC(=O)C3CCCCC3)c2)cc1Cl`, the IC50 result is “inactive”.

In the case of `O=C(NNc1ccccc1Br)C(O)(c1cccc(C(F)(F)F)c1)c1cccc(C(F)(F)F)c1`, the IC50 entry is “inactive”.
